In patent US20060088886A1, “Topiramate analogs” (priority 2004, published 2006):

Legend:
[1] = test system: sheep polyclonal antibodies that bind with topiramate prepared from immunogen (18); test: QMS homogeneous particle-enhanced immunoturbidimetric assay; assay type: binding; conditions: Polyclonal antibody R1, Topiramate antigen (19) coated Latex
Experimental: An immunoturbidimetric or QMS® assay, which is a homogeneous particle-enhanced immunoturbidimetric experiment, is performed to test the polyclonal antibodies prepared as in Example 21. […] Additionally, suitable specimens can be prepared from serum and plasma. Serum can be collected by standard venipuncture techniques and placed into glass or plastic tubes with or without gel barriers. […] In the instance the specimen is centrifuged before a complete clot forms, the presence of fibrin may cause erroneous results. Accordingly, the serum can be separated from red blood cells as soon after collection as possible. Plasma can also be used with acceptable anticoagulants, such as lithium heparin, sodium heparin, potassium EDTA, and a heparin gel plasma separator. The plasma can be collected by standard venipuncture techniques and placed into glass or plastic tubes. Also, centrifugation is used to ensure the adequate removal of platelets. The plasma can be separated from red blood cells as soon as possible after collection. The specimens that contain particulate matter or red blood cells may give inconsistent results, but can be centrifuged before testing at a recommended 8,000 to 10,000 RCF×10 minutes to produce a suitable specimen. The assay procedure is initiated by diluting the specimen because the specimens with topiramate can be used to generate results that exceed the highest calibrator value. As such, the specimens may be diluted manually or by using an automated onboard dilution protocol. The assay is based on competition for topiramate-specific antibody binding sites between drug in the sample and drug coated onto a microparticle of topiramate-coated microparticle reagent is rapidly agglutinated in the presence of the anti-topiramate antibody reagent and in the absence of any competing drug in the sample. The rate of absorbance change is measured photometrically, and is directly proportional to the rate of agglutination of the particles. […] A concentration-dependent classic agglutination inhibition curve can be obtained, with maximum rate of agglutination at the lowest topiramate concentration (at zero μg/ml) and the lowest agglutination rate at the highest topiramate concentration (32 μg/ml). The QMS® topiramate assay is initiated after the being calibrated using a full calibration (6-point) procedure. The QMS® is performed as directed in operation manuals in accordance with the average skill of one in the art.

[2] = test system: anti-topiramate antibodies prepared with immunogen (17); test: ELISA binding inhibition study (avidity), free topiramate vs coated antigens; design: species or system Rabbit; conditions: for Abs Antigen 16 / Abs Antigen 19 / Abs Antigen 20: 405 nm
Experimental: ELISA plates for use in an ELISA assay are prepared in order to study the polyclonal antibody prepared as described in Example 21. As such, various topiramate antigens (16), (19), and (20) are coated on different ELISA plates before being subjected to the anti-topiramate antibody and competing free topiramate. More particularly, the topiramate antigens are diluted in coating buffer, and then added to the wells of ELISA plate. After the ELISA plate is inculcated for 60 min at 37° C., the solvent in the coating buffer is decanted and a blocking buffer is added to the plate. The plate is incubated again for 60 min at 37° C., and the solvent in the blocking buffer is decanted from the plate. The ELISA plate is then stored with the blocking agent in the wells at 2-8° C. for up to 1 week. The avidity of the anti-topiramate antibodies prepared with immunogen (17) for topirainate analogs are determined by a binding inhibition study. As such, samples are prepared in 1 mL of PBS at pH 7.4 with 0.1% BSA. A composition having 30% Bmax titer or 50% Bmax titer is used to divide the obtained titer value into approximately half the titer value. Using 30% Bmax, an antibody titer of 1:10000 is diluted to 1:5000 during the sample preparation stage. About 50 μL of topiramate at different concentrations or calibrator values, (0, 2, 4, 8, 16, 32 μg/ml) are then applied to a plate as prepared in accordance with Example 22. About 50 μL of the diluted antibody is dispensed into the plate, and the compositions in the plate are mixed for 1 min on a horizontal plate shaker. The plate is characterized by a first row not containing topiramate or anti-topiramate antibody, wherein the first row is used as a negative control. A second row not containing topiramate is used as the positive control. The plate is incubated for 60 min, and washed three times with 250 μL of PBS at pH 7.4 with 0.05% tween. About 125 μL of a diluted second antibody conjugate such as antigens (16), (19), or (20), in PBS at pH 7.4 is added to each well of the plate. Titer is determined experimentally by the plate being incubated for 60 min at 37° C. and washed 3 times with 250 μL PBS, pH 7.4 with 0.05% tween. Subsequently, about 125 μL of ABTS substrate is added to each well of the plate and incubated for 20 min.

[3] = Rabbit No. 5481, topiramate 2 μg/ml
[4] = Rabbit No. 5481, topiramate 4 μg/ml
[5] = Rabbit No. 5481, topiramate 8 μg/ml
[6] = Rabbit No. 5481, topiramate 16 μg/ml
[7] = Rabbit No. 5481, topiramate 32 μg/ml
[8] = Rabbit No. 5492, topiramate 2 μg/ml
[9] = Rabbit No. 5492, topiramate 4 μg/ml
[10] = Rabbit No. 5492, topiramate 8 μg/ml
[11] = Rabbit No. 5492, topiramate 16 μg/ml
[12] = Rabbit No. 5492, topiramate 32 μg/ml

CC1(C)O[C@@H]2[C@@H](CO[C@@]3(COS(N)(=O)=O)OC(C)(C)O[C@@H]23)O1 [Topiramate, 2,3:4,5-di-O-isopropylidene-beta-D-fructopyranose sulfamate]
Rate (Delta Absorbance) ([1]; topiramate 2 μg/ml sample): 159 | Rate (Delta Absorbance) ([1]; topiramate 4 μg/ml sample): 122 | Rate (Delta Absorbance) ([1]; topiramate 8 μg/ml sample): 60 | Rate (Delta Absorbance) ([1]; topiramate 16 μg/ml sample): 16 | Rate (Delta Absorbance) ([1]; topiramate 32 μg/ml sample): 4 | B/Bo Antigen 16 [2, 3]: 0.38 | B/Bo Antigen 19 [2, 3]: 0.40 | B/Bo Antigen 20 [2, 3]: 0.53 | Abs Antigen 16 [2, 3]: 0.29 | Abs Antigen 19 [2, 3]: 0.33 | Abs Antigen 20 [2, 3]: 0.32 | B/Bo Antigen 16 [2, 4]: 0.34 | B/Bo Antigen 19 [2, 4]: 0.30 | B/Bo Antigen 20 [2, 4]: 0.50 | Abs Antigen 16 [2, 4]: 0.26 | Abs Antigen 19 [2, 4]: 0.25 | Abs Antigen 20 [2, 4]: 0.30 | B/Bo Antigen 16 [2, 5]: 0.24 | B/Bo Antigen 19 [2, 5]: 0.24 | B/Bo Antigen 20 [2, 5]: 0.42 | Abs Antigen 16 [2, 5]: 0.18 | Abs Antigen 19 [2, 5]: 0.20 | Abs Antigen 20 [2, 5]: 0.25 | B/Bo Antigen 16 [2, 6]: 0.20 | B/Bo Antigen 19 [2, 6]: 0.22 | B/Bo Antigen 20 [2, 6]: 0.37 | Abs Antigen 16 [2, 6]: 0.15 | Abs Antigen 19 [2, 6]: 0.18 | Abs Antigen 20 [2, 6]: 0.22 | B/Bo Antigen 16 [2, 7]: 0.14 | B/Bo Antigen 19 [2, 7]: 0.18 | B/Bo Antigen 20 [2, 7]: 0.30 | Abs Antigen 16 [2, 7]: 0.11 | Abs Antigen 19 [2, 7]: 0.15 | Abs Antigen 20 [2, 7]: 0.18 | B/Bo Antigen 16 [2, 8]: 0.56 | B/Bo Antigen 19 [2, 8]: 0.38 | B/Bo Antigen 20 [2, 8]: 0.64 | Abs Antigen 16 [2, 8]: 0.25 | Abs Antigen 19 [2, 8]: 0.31 | Abs Antigen 20 [2, 8]: 0.45 | B/Bo Antigen 16 [2, 9]: 0.44 | B/Bo Antigen 19 [2, 9]: 0.28 | B/Bo Antigen 20 [2, 9]: 0.59 | Abs Antigen 16 [2, 9]: 0.20 | Abs Antigen 19 [2, 9]: 0.23 | Abs Antigen 20 [2, 9]: 0.41 | B/Bo Antigen 16 [2, 10]: 0.33 | B/Bo Antigen 19 [2, 10]: 0.23 | B/Bo Antigen 20 [2, 10]: 0.54 | Abs Antigen 16 [2, 10]: 0.15 | Abs Antigen 19 [2, 10]: 0.19 | Abs Antigen 20 [2, 10]: 0.38 | B/Bo Antigen 16 [2, 11]: 0.29 | B/Bo Antigen 19 [2, 11]: 0.20 | B/Bo Antigen 20 [2, 11]: 0.54 | Abs Antigen 16 [2, 11]: 0.13 | Abs Antigen 19 [2, 11]: 0.17 | Abs Antigen 20 [2, 11]: 0.38 | B/Bo Antigen 16 [2, 12]: 0.02 | B/Bo Antigen 19 [2, 12]: 0.18 | B/Bo Antigen 20 [2, 12]: 0.40 | Abs Antigen 16 [2, 12]: 0.01 | Abs Antigen 19 [2, 12]: 0.15 | Abs Antigen 20 [2, 12]: 0.28
